Experiments:
[1] = target: T1, Polyunsaturated fatty acid lipoxygenase ALOX15 (Oryctolagus cuniculus, UniProt P12530); assay: biochemical; type: tissue-based, Reticulocytes; details: reticulocytes;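 note: inhibition of 15-lipoxygenase enzyme activity measured with linoleic acid as the substrate; in other assays of this panel Not Active means under 50% inhibition at 10 µM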
T1 sequence (P12530 whole entry): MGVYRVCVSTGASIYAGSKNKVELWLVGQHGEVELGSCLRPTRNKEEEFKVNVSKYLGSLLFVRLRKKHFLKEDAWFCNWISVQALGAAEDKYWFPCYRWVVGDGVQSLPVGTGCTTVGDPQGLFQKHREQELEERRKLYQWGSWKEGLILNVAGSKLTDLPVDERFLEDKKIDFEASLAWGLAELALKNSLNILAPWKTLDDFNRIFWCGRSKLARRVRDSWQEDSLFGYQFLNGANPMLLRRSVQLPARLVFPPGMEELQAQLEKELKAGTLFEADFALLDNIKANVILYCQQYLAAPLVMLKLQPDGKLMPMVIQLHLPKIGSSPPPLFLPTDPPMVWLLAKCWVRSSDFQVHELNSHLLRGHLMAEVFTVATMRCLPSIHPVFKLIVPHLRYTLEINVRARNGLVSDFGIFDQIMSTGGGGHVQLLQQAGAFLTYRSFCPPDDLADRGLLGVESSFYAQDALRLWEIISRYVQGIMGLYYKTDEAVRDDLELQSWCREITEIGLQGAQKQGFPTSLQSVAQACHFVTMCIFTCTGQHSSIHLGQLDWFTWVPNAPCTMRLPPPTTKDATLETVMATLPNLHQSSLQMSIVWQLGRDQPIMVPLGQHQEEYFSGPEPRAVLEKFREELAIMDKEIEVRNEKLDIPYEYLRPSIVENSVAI

[2] = target: T2, Nitric oxide synthase, inducible (Mus musculus, UniProt P29477); set-up: species or system Escherichia coli;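 note: inhibition of iNOS enzyme activity measured with L-arginine as substrate; in other assays of this panel Not Active means under 50% inhibition at 10 µM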
T2 sequence (P29477 whole entry): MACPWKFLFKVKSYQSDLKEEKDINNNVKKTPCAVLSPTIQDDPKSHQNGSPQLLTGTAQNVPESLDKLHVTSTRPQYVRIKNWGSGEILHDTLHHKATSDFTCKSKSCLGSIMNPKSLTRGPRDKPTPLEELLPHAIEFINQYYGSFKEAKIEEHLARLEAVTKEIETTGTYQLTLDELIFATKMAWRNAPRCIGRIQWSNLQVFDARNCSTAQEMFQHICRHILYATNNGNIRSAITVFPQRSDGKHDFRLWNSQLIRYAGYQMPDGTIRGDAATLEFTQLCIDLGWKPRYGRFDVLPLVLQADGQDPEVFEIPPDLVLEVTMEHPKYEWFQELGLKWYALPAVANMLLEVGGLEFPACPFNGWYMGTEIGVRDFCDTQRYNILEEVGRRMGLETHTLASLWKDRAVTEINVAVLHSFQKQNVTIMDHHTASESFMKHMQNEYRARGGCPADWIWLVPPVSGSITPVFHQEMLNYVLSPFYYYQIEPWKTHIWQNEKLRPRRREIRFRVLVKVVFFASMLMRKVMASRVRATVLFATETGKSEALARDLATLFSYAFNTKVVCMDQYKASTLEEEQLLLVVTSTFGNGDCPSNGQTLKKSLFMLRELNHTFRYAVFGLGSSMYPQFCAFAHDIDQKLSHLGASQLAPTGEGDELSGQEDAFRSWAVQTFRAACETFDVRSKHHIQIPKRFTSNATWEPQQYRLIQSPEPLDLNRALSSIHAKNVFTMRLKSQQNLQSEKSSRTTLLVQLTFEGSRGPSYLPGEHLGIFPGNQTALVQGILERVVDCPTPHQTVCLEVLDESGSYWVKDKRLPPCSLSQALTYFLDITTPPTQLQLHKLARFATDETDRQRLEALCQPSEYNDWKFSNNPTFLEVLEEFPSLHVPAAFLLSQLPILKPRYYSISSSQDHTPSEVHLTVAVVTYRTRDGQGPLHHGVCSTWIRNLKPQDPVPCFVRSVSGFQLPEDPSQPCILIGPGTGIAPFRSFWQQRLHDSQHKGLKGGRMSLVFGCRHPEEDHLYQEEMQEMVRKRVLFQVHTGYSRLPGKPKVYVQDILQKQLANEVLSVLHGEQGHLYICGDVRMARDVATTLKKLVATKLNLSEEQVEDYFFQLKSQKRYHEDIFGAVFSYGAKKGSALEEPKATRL

Mu-type opioid receptor = Mu-type opioid receptor (Homo sapiens, UniProt P35372); assay: DRUGMATRIX: Opiate mu (OP3, MOP) radioligand binding (ligand: [3H] Diprenorphine); type: cell membranes, CHO-K1, Membrane; details: cho-k1; Not Active = under 50% inhibition at 10 µM
[3] = target: Tyrosine-protein kinase Lck (Homo sapiens, UniProt P06239); assay: DRUGMATRIX: Protein Tyrosine Kinase, LCK enzyme inhibition (substrate: Poly(Glu:Tyr)); type: cell-based, Insect cells; details: insect cells; Not Active = under 50% inhibition at 10 µM
Cytochrome P450 1A2 = target: T3, Cytochrome P450 1A2 (Homo sapiens, UniProt P05177); details: bti-tn-5b1-4; note: in other assays of this panel Not Active means under 50% inhibition at 10 µM
T3 sequence (P05177 whole entry): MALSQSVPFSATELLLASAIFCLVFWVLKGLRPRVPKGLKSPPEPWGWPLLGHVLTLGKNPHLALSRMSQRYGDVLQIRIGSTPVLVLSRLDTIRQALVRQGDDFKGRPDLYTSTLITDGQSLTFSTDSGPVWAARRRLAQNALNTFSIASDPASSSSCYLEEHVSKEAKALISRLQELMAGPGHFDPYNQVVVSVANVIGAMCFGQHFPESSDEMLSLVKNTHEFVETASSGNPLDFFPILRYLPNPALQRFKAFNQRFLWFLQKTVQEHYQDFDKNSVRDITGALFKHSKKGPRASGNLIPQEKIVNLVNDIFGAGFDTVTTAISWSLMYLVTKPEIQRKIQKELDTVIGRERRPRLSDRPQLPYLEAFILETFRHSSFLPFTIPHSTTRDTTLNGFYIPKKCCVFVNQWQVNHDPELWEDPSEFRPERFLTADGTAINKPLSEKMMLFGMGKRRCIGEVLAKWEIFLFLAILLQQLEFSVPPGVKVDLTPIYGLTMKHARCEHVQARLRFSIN

Cytochrome P450 2C19 = Cytochrome P450 2C19 (Homo sapiens, UniProt P33261); details: bti-tn-5b1-4; note: in other assays of this panel Not Active means under 50% inhibition at 10 µM
Chain of Cytochrome P450 2C19 (P33261 whole entry): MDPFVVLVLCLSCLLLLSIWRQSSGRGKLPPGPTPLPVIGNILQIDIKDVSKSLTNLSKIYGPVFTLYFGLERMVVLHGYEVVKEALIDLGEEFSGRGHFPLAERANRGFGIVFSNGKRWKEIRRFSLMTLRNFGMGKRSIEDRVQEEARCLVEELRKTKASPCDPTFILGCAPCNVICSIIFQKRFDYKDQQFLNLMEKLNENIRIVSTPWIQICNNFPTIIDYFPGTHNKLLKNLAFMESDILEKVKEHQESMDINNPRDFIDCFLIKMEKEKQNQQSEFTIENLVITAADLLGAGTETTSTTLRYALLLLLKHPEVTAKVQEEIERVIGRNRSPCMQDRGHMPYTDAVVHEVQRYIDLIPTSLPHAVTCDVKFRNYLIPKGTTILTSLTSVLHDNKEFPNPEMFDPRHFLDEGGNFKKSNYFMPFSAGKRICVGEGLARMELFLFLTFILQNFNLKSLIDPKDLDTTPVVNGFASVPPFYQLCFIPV

Chain of Tyrosine-protein kinase Lck (P06239 whole entry): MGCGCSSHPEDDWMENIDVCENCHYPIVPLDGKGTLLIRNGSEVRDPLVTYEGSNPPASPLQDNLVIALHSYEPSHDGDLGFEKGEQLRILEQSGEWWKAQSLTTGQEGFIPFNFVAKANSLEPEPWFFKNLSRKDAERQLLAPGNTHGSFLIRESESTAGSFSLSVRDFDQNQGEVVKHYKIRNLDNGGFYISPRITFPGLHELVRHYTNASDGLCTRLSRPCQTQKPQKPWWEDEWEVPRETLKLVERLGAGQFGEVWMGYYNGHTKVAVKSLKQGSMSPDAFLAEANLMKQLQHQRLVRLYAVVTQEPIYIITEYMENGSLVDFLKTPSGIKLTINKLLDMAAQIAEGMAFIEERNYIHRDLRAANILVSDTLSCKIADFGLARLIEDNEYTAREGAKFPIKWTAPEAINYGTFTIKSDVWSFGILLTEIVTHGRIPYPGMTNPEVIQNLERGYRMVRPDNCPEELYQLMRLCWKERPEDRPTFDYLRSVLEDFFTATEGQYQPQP
Chain of Mu-type opioid receptor (P35372 whole entry): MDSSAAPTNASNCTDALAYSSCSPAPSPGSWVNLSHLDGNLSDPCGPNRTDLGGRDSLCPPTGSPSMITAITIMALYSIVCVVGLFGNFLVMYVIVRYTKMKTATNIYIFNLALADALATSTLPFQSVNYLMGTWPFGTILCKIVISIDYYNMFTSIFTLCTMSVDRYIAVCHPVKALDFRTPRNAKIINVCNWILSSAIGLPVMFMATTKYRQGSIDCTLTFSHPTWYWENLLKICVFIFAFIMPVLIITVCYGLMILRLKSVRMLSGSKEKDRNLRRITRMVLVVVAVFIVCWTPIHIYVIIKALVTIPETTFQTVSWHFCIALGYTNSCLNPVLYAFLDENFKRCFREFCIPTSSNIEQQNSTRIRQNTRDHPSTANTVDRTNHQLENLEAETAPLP

CCOc1nc2cccc(C(=O)O)c2n1Cc1ccc(-c2ccccc2-c2nnn[nH]2)cc1
Not Active: IC50 [1] | IC50 [2] | IC50 (Mu-type opioid receptor) | IC50 [3]

O=C(c1ccccc1F)N1CCC(Cc2ccccc2)CC1
Not Active: IC50 [1] | IC50 [2] | IC50 (Mu-type opioid receptor) | IC50 [3] | IC50 (Cytochrome P450 1A2) | Ki (Cytochrome P450 1A2)

NC12CC3CC(CC(C3)C1)C2 [AMANTADINE]
Not Active: IC50 [1] | IC50 [2] | IC50 (Mu-type opioid receptor) | IC50 [3]

CC(C)c1c(C(=O)Nc2ccccc2)c(-c2ccccc2)c(-c2ccc(F)cc2)n1CC[C@@H](O)C[C@@H](O)CC(=O)O [ATORVASTATIN]
Not Active: IC50 [1] | IC50 [2] | IC50 (Mu-type opioid receptor) | IC50 [3]

CC(C)(C(=O)O)c1ccc(C(O)CCCN2CCC(C(O)(c3ccccc3)c3ccccc3)CC2)cc1 (stereo not given) [FEXOFENADINE]
Not Active: IC50 [1] | IC50 [2] | IC50 (Mu-type opioid receptor) | IC50 [3]

CC(=O)OCC(=O)[C@@]12OC(C)(C)O[C@@H]1C[C@H]1[C@@H]3C[C@H](F)C4=CC(=O)C=C[C@]4(C)[C@@]3(F)[C@@H](O)C[C@@]12C [FLUOCINONIDE]
Not Active: IC50 [1] | IC50 [2] | IC50 (Mu-type opioid receptor) | IC50 [3]

N[C@@H](Cn1ccc(=O)c(O)c1)C(=O)O [L-MIMOSINE]
Not Active: IC50 [1] | IC50 [2] | IC50 (Mu-type opioid receptor) | IC50 [3]

C[C@]12CC[C@H]3[C@@H](CCC4=CC(=O)CC[C@@H]43)[C@@H]1CC[C@@H]2O [NANDROLONE]
Not Active: IC50 [1] | IC50 [2] | IC50 [3] | IC50 (Cytochrome P450 1A2) | Ki (Cytochrome P450 1A2) | IC50 (Cytochrome P450 2C19) | Ki (Cytochrome P450 2C19)

C[C@@H]1C/C=C/C=C/C=C/C=C/[C@H](O[C@@H]2O[C@H](C)[C@@H](O)[C@H](N)[C@@H]2O)C[C@@H]2O[C@](O)(C[C@@H](O)C[C@H]3O[C@@H]3/C=C/C(=O)O1)C[C@H](O)[C@H]2C(=O)O [NATAMYCIN]
Not Active: IC50 [1] | IC50 [2] | IC50 (Mu-type opioid receptor) | IC50 [3]

COc1ccc2c(c1OC)C(=O)O[C@@H]2[C@H]1c2c(cc3c(c2OC)OCO3)CCN1C [NOSCAPINE]
Not Active: IC50 [1] | IC50 [2] | IC50 (Mu-type opioid receptor) | IC50 [3] | IC50 (Cytochrome P450 1A2) | Ki (Cytochrome P450 1A2)

C[C@@H]1O[C@@H](O[C@H]2C[C@@H](O)[C@]3(CO)[C@H]4[C@H](O)C[C@]5(C)[C@@H](C6=CC(=O)OC6)CC[C@]5(O)[C@@H]4CC[C@]3(O)C2)[C@H](O)[C@H](O)[C@H]1O [OUABAIN]
Not Active: IC50 [1] | IC50 [2] | IC50 [3] | IC50 (Cytochrome P450 2C19) | Ki (Cytochrome P450 2C19)

NNCCc1ccccc1 [PHENELZINE]
Not Active: IC50 [1] | IC50 [2] | IC50 (Mu-type opioid receptor) | IC50 [3] | IC50 (Cytochrome P450 1A2) | Ki (Cytochrome P450 1A2)

CCN(CC)CCNC(=O)c1ccc(N)cc1 [PROCAINAMIDE]
Not Active: IC50 [1] | IC50 [2] | IC50 (Mu-type opioid receptor) | IC50 [3] | IC50 (Cytochrome P450 1A2) | Ki (Cytochrome P450 1A2)

C[C@]12C=CC(=O)C=C1CC[C@H]1[C@@H]3C[C@@H](O)[C@](O)(C(=O)CO)[C@@]3(C)C[C@H](O)[C@@]12F [TRIAMCINOLONE]
Not Active: IC50 [1] | IC50 [2] | IC50 (Mu-type opioid receptor) | IC50 [3] | IC50 (Cytochrome P450 1A2) | Ki (Cytochrome P450 1A2)

COBALTOUS CHLORIDE
Not Active: IC50 [1] | Ki [1] | IC50 [2] | Ki [2] | IC50 [3] | Ki [3] | IC50 (Cytochrome P450 1A2) | Ki (Cytochrome P450 1A2) | IC50 (Cytochrome P450 2C19) | Ki (Cytochrome P450 2C19)

COLISTIN
Not Active: IC50 [1] | Ki [1] | IC50 [2] | Ki [2] | IC50 [3] | Ki [3] | IC50 (Cytochrome P450 1A2) | Ki (Cytochrome P450 1A2) | IC50 (Cytochrome P450 2C19) | Ki (Cytochrome P450 2C19)

— ChEMBL document CHEMBL1909046, “DrugMatrix in vitro pharmacology data”
